Reference: patent US7279470B2 (priority 2001, dated 2007)

Legend:
[1] = target: T1, Hormone-sensitive lipase (HSL) (Homo sapiens, UniProt Q05469); format: biochemical; conditions: 10 μM concentration; percent activity relative to an un-inhibited sample (no compound); 3H-Triolein substrate, 25° C.
T1 sequence (Q05469 1-1076): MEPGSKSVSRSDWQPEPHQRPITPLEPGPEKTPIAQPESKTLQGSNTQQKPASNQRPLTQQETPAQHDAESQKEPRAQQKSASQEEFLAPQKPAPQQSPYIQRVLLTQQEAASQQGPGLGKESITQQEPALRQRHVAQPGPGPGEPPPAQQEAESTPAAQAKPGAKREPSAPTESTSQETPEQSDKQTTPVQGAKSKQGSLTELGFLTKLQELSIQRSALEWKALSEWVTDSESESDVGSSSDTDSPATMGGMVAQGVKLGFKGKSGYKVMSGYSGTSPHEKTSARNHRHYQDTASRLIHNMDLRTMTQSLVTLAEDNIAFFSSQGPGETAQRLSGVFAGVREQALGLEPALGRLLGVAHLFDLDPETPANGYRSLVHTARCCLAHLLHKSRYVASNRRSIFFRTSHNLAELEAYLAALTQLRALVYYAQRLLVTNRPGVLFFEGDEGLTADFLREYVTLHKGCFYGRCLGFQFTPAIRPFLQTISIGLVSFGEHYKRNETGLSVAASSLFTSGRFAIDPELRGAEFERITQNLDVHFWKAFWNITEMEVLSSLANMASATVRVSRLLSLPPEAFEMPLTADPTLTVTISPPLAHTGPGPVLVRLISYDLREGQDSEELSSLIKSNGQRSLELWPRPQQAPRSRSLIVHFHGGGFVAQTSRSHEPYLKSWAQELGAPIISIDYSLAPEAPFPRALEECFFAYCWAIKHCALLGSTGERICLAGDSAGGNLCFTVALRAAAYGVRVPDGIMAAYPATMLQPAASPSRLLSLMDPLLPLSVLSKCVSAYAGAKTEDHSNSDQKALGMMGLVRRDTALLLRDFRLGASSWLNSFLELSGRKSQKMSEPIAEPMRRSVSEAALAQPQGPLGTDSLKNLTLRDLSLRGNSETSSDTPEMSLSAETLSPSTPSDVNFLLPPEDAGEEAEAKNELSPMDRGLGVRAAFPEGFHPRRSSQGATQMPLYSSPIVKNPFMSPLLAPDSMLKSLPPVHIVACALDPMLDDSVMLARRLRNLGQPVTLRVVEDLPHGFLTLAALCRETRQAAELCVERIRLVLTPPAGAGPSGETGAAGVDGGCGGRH
From the text: Materials. The Hormone-sensitive lipase was provided by Dr. Cecilia Holm, from Lund University Sweden or produced and purified by Novo Nordisk (NN) using the reagents and protocols used by Dr. Holm. The substrates used are: ^3H-labeled triolein (TO) from Amersham, Buckinghamshire, U.K. cat No. TRA191; 5-20 Ci/mmol dissolved in toluene, triolein (Sigma, Cat. No. T-1740), fluorochrome-labeled triacylglyceride (cis-octadec-9-enoic acid 2-[12-(7-nitrobenzo[12,5]oxadiazol-4-ylamino)dodecanoyloxy]-1-cis-octadec-9-enoyloxymethyl-ethyl ester) prepared by Novo Nordisk (NN) by conventional methods, and 1,3-(di[^3H]-stearin), 2-(PEG-Biotin)glycerol prepared in collaboration with Amersham Pharmacia Biotech, UK and described in WO 01/073442. Phosphatidyl choline (PC) and phosphatidyl inositol (PI) are from Sigma (St Luis MO cat. Nos. P-3556 and P-5954 respectively). All other reagents are of commercial grade and obtained from various commercial sources.
3180.2: Assay for determination of percent inhibition by compound at 10 μM concentration. A lipid emulsion with ^3H-Triolein and phospholipid is used as substrate with a standard cencentration of highly purified HSL. BSA is added as product receptor. The substrate is prepared as follows: […]

[2] = target: T1, Hormone-sensitive lipase (HSL); format: biochemical; conditions: 10 μM sample concentration; percent activity relative to a non-inhibited sample (no compound); 30 min preincubation 25° C., 120 min at 37° C.
Protocol: Materials. The Hormone-sensitive lipase was provided by Dr. Cecilia Holm, from Lund University Sweden or produced and purified by Novo Nordisk (NN) using the reagents and protocols used by Dr. Holm. […] All other reagents are of commercial grade and obtained from various commercial sources.
BSA is added as product receptor. The transfer of the fluorochrome from the lipid phase to the water (BSA) phase changes the fluorescent properties of the fluorochrome. The changes can be monitored on a fluorimeter with an excitation wavelength of 450 nm and an emission wavelength of 545 nm.
Compound and HSL (20 μL compound, 10 μL enzyme and 70 μL PED-BSA buffer) is preincubated for 30 min at 25° C. before addition of substrate (100 μL). Amount of formed product is measured after 120 min incubation at 37° C.

Compound	Test 3180.2 HSL % ACTIVITY All [1] [%]	Test 3190.1 HSL_FL % ACTIVITY All [2] [%]
Cc1c(Cc2ccccc2)c(=O)oc2cc(OC(=O)N3CCOCC3)ccc12 [Example 92]	62	
CN(C(=O)Oc1ccc(OC(F)(F)C(F)(F)F)cc1)c1ccccc1 [Example 20]		51
O=C(Oc1ccc(Oc2ccc3c(C(F)(F)F)cc(C(F)(F)F)nc3n2)cc1)N1CCOCC1 [Example 90, Morpholine-4-carboxylic acid 4-(5,7-bis-trifluoromethyl-[1,8]naphthypyridin-2-yloxy)-phenyl ester]		24
N-Methyl-N-phenethyl-5-ethyl-3-(4-chlorophenyl)-[1,2,4]triazole-1-carboxamide [Example 119]	10	
